Measured values reported in US11906524B2, “Urea biosensors and uses thereof” (Duke University, priority 2015, dated 2024).

Test: Urea titration of emission intensity spectra (Nanodrop3300) with ratiometric analysis, singly labeled conjugates
Assay type: binding
Settings: for effect of mutation on urea affinity: mutation in the csUBP7 186C·Acrylodan conjugate
From the text: Determination of emission intensity spectra.
Ratiometric analysis of urea binding. […] 2
For a single urea-binding site, the fractional saturation is given by
[formula] where [L] is the ligand (urea) concentration and Kd the dissociation constant, ^trueKd for ytrue.
[formula] where ^appIλ2 and ^satIλ2 are the emission intensities of the monochromatic signal at wavelength λ2 of the ligand-free and ligand-bound protein, respectively.

Molecule	effect of mutation on urea affinity	also measured
Oregon Green	–	monochromatic intensity change (fluorophore conjugated to csUBP7 186C variant with Q114A, increase on urea): ~2 fold; Kd (fluorophore conjugated to csUBP7 186C, Q114A, fit of equation 1 to the monochromatic emission intensities, Nanodrop3300, read-out: trueKd (urea)): 300 µM
Texas Red	–	trueKd (urea) (fluorophore conjugated to csUBP7 186C, Q114A, fit of equation 1 to the monochromatic emission intensities, Nanodrop3300): n/b
N211A: csUBP7 186C, 211A mutant (SEQ ID NO: 82), tested as Acrylodan conjugate (conjugate, Acrylodan conjugate; csUBP7_186C.28 (186C, 211A substitution mutant, signal peptide replaced with M and a GGSHHHHHH at C-terminus, and also comprising a C89A substitution)) MSSSESEKEKSEETIKVGILHSLSGTMSISEVSLKDAELMAIEEINNNGGVLGKKLEPIVEDGASDWPTFAEKAKKLLQKDKVAVIFGAWTSASRKAVLPVVEENNGLLFYPVQYEGLESSPNIFYMGAAPNQQIVPAVKWLFDNGKKRFYLLGSDYVFPRTANKIIKAYLKYLGGVVVGEEYTPCGHTDYSSVINKIKAAKPDVVFNTLAGDSNVAFFKQLKDAGIDANTLPVMSVSIAEEEIKGIGPEYLKGHLVTWNYFQSVDTPENKEFVEKYKKKYGEDRVTDDPIEAAYIGVYLWAKAVEKAGSTDVDKVREAAKGIEFNAPEGPVKIDGDNQHLYKTVRIGEILENGQIRELWKTNKPVKPDPYLKGYEWAQGLSEQGGSHHHHHH	nearly abolishes binding	–
Q114E: csUBP7 186C, 114E mutant (SEQ ID NO: 76), tested as Acrylodan conjugate (conjugate, Acrylodan conjugate; csUBP7_186C.22 (186C, 114E substitution mutant, signal peptide replaced with M and a GGSHHHHHH at C-terminus, and also comprising a C89A substitution)) MSSSESEKEKSEETIKVGILHSLSGTMSISEVSLKDAELMAIEEINNNGGVLGKKLEPIVEDGASDWPTFAEKAKKLLQKDKVAVIFGAWTSASRKAVLPVVEENNGLLFYPVEYEGLESSPNIFYMGAAPNQQIVPAVKWLFDNGKKRFYLLGSDYVFPRTANKIIKAYLKYLGGVVVGEEYTPCGHTDYSSVINKIKAAKPDVVFNTLNGDSNVAFFKQLKDAGIDANTLPVMSVSIAEEEIKGIGPEYLKGHLVTWNYFQSVDTPENKEFVEKYKKKYGEDRVTDDPIEAAYIGVYLWAKAVEKAGSTDVDKVREAAKGIEFNAPEGPVKIDGDNQHLYKTVRIGEILENGQIRELWKTNKPVKPDPYLKGYEWAQGLSEQGGSHHHHHH	improves binding by an order of magnitude	–
N211E: csUBP7 186C, 211E mutant (SEQ ID NO: 86), tested as Acrylodan conjugate (conjugate, Acrylodan conjugate; csUBP7_186C.32 (186C, 211E substitution mutant, signal peptide replaced with M and a GGSHHHHHH at C-terminus, and also comprising a C89A substitution)) MSSSESEKEKSEETIKVGILHSLSGTMSISEVSLKDAELMAIEEINNNGGVLGKKLEPIVEDGASDWPTFAEKAKKLLQKDKVAVIFGAWTSASRKAVLPVVEENNGLLFYPVQYEGLESSPNIFYMGAAPNQQIVPAVKWLFDNGKKRFYLLGSDYVFPRTANKIIKAYLKYLGGVVVGEEYTPCGHTDYSSVINKIKAAKPDVVFNTLEGDSNVAFFKQLKDAGIDANTLPVMSVSIAEEEIKGIGPEYLKGHLVTWNYFQSVDTPENKEFVEKYKKKYGEDRVTDDPIEAAYIGVYLWAKAVEKAGSTDVDKVREAAKGIEFNAPEGPVKIDGDNQHLYKTVRIGEILENGQIRELWKTNKPVKPDPYLKGYEWAQGLSEQGGSHHHHHH	weakens affinity	–
